What was measured:
[1] = system: LTB4 synthesis in human whole blood; test: human whole blood (HWB) assay, inhibition of LTB4 production; assay type: cell-based; settings: heparinized human whole blood, calcimycin 20 μM stimulation, plasma LTB4
Description: The compounds of the invention are additionally tested in a human whole blood (HWB) assay to determine their ability to inhibit the synthesis of LTB4 in a cellular system. Compounds are combined with heparinized human whole blood and incubated for 15 minutes at 37° C. Calcimycin (20 μM final, prepared in phosphate-buffered saline, pH 7.4) is then added and the mixture is incubated for another 30 minutes at 37° C. The samples are centrifuged for 5 min at low speed (1500×g) and the plasma layer is removed. Plasma LTB4 concentrations are then measured using an antibody-based homogenous time-resolved fluorescence method (CisBio, Bedford, Mass.). In general, the preferred potency range (IC50) of compounds in the HWB assay is between 10 nM to 10 μM, the more preferred potency range is 10 nM to 1 μM, and the most preferred potency range is 10 nM to 100 nM.

human LTA4 hydrolase = target: T1, human LTA4 hydrolase (Homo sapiens, UniProt P09960); test: LTA4H Enzyme assay (peptidase, Arg-AMC cleavage); assay type: biochemical; settings: LTA4H enzyme 1 nM, Arg-AMC substrate 50 μM, room temperature 1 h, fluorescence 380/460 nm
T1 sequence (P09960 1-611): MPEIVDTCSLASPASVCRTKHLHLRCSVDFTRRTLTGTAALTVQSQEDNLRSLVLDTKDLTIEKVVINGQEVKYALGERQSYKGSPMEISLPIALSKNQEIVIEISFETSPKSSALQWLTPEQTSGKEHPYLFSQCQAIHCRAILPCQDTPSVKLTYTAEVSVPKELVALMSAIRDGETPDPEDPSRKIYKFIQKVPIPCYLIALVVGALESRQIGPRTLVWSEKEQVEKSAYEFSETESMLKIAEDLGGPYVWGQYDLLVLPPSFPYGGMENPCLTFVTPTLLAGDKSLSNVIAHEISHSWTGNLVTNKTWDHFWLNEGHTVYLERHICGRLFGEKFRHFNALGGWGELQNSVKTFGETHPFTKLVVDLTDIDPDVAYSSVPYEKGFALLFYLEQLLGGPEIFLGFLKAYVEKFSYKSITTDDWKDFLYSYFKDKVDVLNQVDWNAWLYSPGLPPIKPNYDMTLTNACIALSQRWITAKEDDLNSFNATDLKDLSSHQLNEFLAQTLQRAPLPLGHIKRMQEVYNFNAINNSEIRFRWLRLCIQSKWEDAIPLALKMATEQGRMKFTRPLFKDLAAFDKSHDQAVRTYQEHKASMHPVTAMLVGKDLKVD
Description: The compounds of the invention are assessed for the ability to interact with human LTA4 hydrolase in an enzymatic assay that measures the ability of the enzyme to cleave the peptide bond of arginyl-aminomethylcoumarin (Arg-AMC). LTA4H Enzyme (1 nM final), Arg-AMC substrate (50 μM final), and compound are combined in a reaction buffer (50 mM Tris-HCl (pH 7.5), 100 mM KCl, 0.5% bovine serum albumin) at room temperature for 1 h. The formation of product is assessed by measuring the fluorescence of aminomethylcoumarin product (excitation wavelength 380 nm/emission wavelength 460 nm). In general, the preferred potency range (IC50) of compounds in the LTA4H Enzyme assay is between 0.1 nM to 10 μM, the more preferred potency range is 0.1 nM to 0.1 μM, and the most preferred potency range is 0.1 nM to 10 nM.

Molecule `COCC(=O)N1CCN(Cc2ccc3cc(Oc4ccc(-c5ccn[nH]5)cn4)ccc3c2)CC1` [Example 1, 2-Methoxy-1-(4-{6-[5-(2H-pyrazol-3-yl)-pyridin-2-yloxy]-naphthalen-2-ylmethyl}-piperazin-1-yl)-ethanone] has an IC50 [1] of 180 nM and an IC50 (human LTA4 hydrolase) of 0.63 nM.

`CC(=O)N1CCN(Cc2ccc3cc(Oc4ccc(-c5ccn[nH]5)cn4)ccc3c2)CC1` [Example 2, 1-(4-{6-[5-(2H-Pyrazol-3-yl)-pyridin-2-yloxy]-naphthalen-2-ylmethyl}-piperazin-1-yl)-ethanone] was tested, and the IC50 [1] was 130 nM and the IC50 (human LTA4 hydrolase) was 0.39 nM.

`c1cc(-c2ccc(Oc3ccc4cc(CN5CCCC5)ccc4c3)nc2)[nH]n1` [Example 3, 5-(2H-Pyrazol-3-yl)-2-(6-pyrrolidin-1-ylmethyl-naphthalen-2-yloxy)-pyridine] gave an IC50 [1] of 120 nM and an IC50 (human LTA4 hydrolase) of 0.34 nM.

`OC1CCN(Cc2ccc3cc(Oc4ccc(-c5ccn[nH]5)cn4)ccc3c2)CC1` [Example 4, 1-{6-[5-(2H-Pyrazol-3-yl)-pyridin-2-yloxy]-naphthalen-2-ylmethyl}-piperidin-4-ol] was tested, and the IC50 [1] was 190 nM and the IC50 (human LTA4 hydrolase) was 0.54 nM.

Work on `NC(=O)C1CCN(Cc2ccc3cc(Oc4ccc(-c5ccn[nH]5)cn4)ccc3c2)CC1` [Example 5, 1-{6-[5-(2H-Pyrazol-3-yl)-pyridin-2-yloxy]-naphthalen-2-ylmethyl}-piperidine-4-carboxylic acid amide] yielded an IC50 [1] of 220 nM and an IC50 (human LTA4 hydrolase) of 0.46 nM.

For `CC(=O)NC1CCN(Cc2ccc3cc(Oc4ccc(-c5ccn[nH]5)cn4)ccc3c2)CC1` [Example 6, N-(1-{6-[5-(2H-Pyrazol-3-yl)-pyridin-2-yloxy]-naphthalen-2-ylmethyl}-piperidin-4-yl)-acetamide], the IC50 [1] was 210 nM and the IC50 (human LTA4 hydrolase) was 0.37 nM.

With `O=C1[C@@H](O)CCN1C1CCN(Cc2ccc3cc(Oc4ccc(-c5ccn[nH]5)cn4)ccc3c2)CC1` [Example 7, (S)-3-Hydroxy-1-(1-{6-[5-(2H-pyrazol-3-yl)-pyridin-2-yloxy]-naphthalen-2-ylmethyl}-piperidin-4-yl)-pyrrolidin-2-one] the IC50 [1] was 180 nM and the IC50 (human LTA4 hydrolase) was 0.68 nM.

In the case of `CN(C)CC1CCc2cc(Oc3ccc(-c4ccn[nH]4)cc3)ccc2O1` (stereo not drawn) [Example 8, dimethyl-{6-[4-(2H-pyrazol-3-yl)-phenoxy]-chroman-2-ylmethyl}-amine], the IC50 [1] is reported as 99 nM and the IC50 (human LTA4 hydrolase) is reported as 0.35 nM.

`NC(=O)C1CCN(CC2CCc3ccc(Oc4ccc(-c5ccn[nH]5)cn4)cc3O2)CC1` (stereo not drawn) [Example 9, 1-{7-[5-(2H-Pyrazol-3-yl)-pyridin-2-yloxy]-chroman-2-ylmethyl}-piperidine-4-carboxylic acid amide] gave an IC50 [1] of 1300 nM and an IC50 (human LTA4 hydrolase) of 4.2 nM.

In the case of `O=C(CO)N1CCN(Cc2ccc3cc(Oc4ccc(-c5ccn[nH]5)cc4)ccc3n2)CC1` [Example 10, 2-hydroxy-1-(4-{6-[4-(2H-pyrazol-3-yl)-phenoxy]-quinolin-2-ylmethyl}-piperazin-1-yl)-ethanone], the IC50 [1] is reported as 150 nM and the IC50 (human LTA4 hydrolase) is reported as 0.53 nM.

In the case of `O=C1OCCN1C1CCN(Cc2ccc3cc(Oc4ccc(-c5ccn[nH]5)cn4)ccc3n2)CC1` [Example 11, 3-(1-{6-[5-(2H-pyrazol-3-yl)-pyridin-2-yloxy]-quinolin-2-ylmethyl}-piperidin-4-yl)-oxazolidin-2-one], the IC50 [1] is reported as 180 nM and the IC50 (human LTA4 hydrolase) is reported as 0.65 nM.

Work on `CCC(=O)N1CCN(Cc2ccc3cc(Oc4ccc(-c5ccn[nH]5)cc4)ccc3n2)CC1` [Example 12, 1-(4-{6-[4-(2H-pyrazol-3-yl)-phenoxy]-quinolin-2-ylmethyl}-piperazin-1-yl)-propan-1-one] yielded an IC50 [1] of 190 nM and an IC50 (human LTA4 hydrolase) of 0.45 nM.

In the case of `C[C@H](O)C(=O)N1CCN(Cc2ccc3cc(Oc4ccc(-c5ccn[nH]5)cc4)ccc3n2)CC1` [Example 13, (S)-2-hydroxy-1-(4-{6-[4-(2H-pyrazol-3-yl)-phenoxy]-quinolin-2-ylmethyl}-piperazin-1-yl)-propan-1-one], the IC50 [1] is reported as 200 nM and the IC50 (human LTA4 hydrolase) is reported as 0.59 nM.

`c1cc(-c2ccc(Oc3ccc4cc(CN5CCOCC5)nn4c3)cc2)[nH]n1` [Example 14, 2-morpholin-4-ylmethyl-6-[4-(2H-pyrazol-3-yl)-phenoxy]-pyrazolo[1,5-a]pyridine] was tested, and the IC50 [1] was 310 nM and the IC50 (human LTA4 hydrolase) was 1.2 nM.

With `O=C(N1CCN(Cc2ccc3cc(Oc4ccc(-c5ccn[nH]5)cc4)ccc3n2)CC1)C1(O)CC1` [Example 15, (1-hydroxy-cyclopropyl)-(4-{6-[4-(2H-pyrazol-3-yl)-phenoxy]-quinolin-2-ylmethyl}-piperazin-1-yl)-methanone] the IC50 [1] was 810 nM and the IC50 (human LTA4 hydrolase) was 2.4 nM.

With `O=C1OC[C@@H]2CN(Cc3ccc4cc(Oc5ccc(-c6ccn[nH]6)cn5)ccc4n3)CCN12` [Example 16, (S)-7-{6-[5-(2H-pyrazol-3-yl)-pyridin-2-yloxy]-quinolin-2-ylmethyl}-hexahydro-oxazolo[3,4-a]pyrazin-3-one] the IC50 [1] was 250 nM and the IC50 (human LTA4 hydrolase) was 1.1 nM.

`O=S1(=O)CC2CC1CN2Cc1ccc2cc(Oc3ccc(-c4ccn[nH]4)cc3)ccc2n1` (stereo not drawn) [Example 17, 2-(2,2-Dioxo-2-λ-6-thia-5-aza-bicyclo[2.2.1]hept-5-ylmethyl)-6-[4-(2H-pyrazol-3-yl)-phenoxy]-quinoline] gave an IC50 [1] of 430 nM and an IC50 (human LTA4 hydrolase) of 1.1 nM.

`O=C1CCC2CN(Cc3ccc4cc(Oc5ccc(-c6ccn[nH]6)cn5)ccc4n3)CCN12` (stereo not drawn) [Example 18, 2-{6-[5-(2H-pyrazol-3-yl)-pyridin-2-yloxy]-quinolin-2-ylmethyl}-hexahydro-pyrrolo[1,2-a]pyrazin-6-one] showed an IC50 [1] of 580 nM and an IC50 (human LTA4 hydrolase) of 2 nM.

For `c1cc(-c2ccc(Oc3ccc4nc(CN5CCCC5)ccc4c3)nc2)[nH]n1` [Example 19, 6-[5-(2H-Pyrazol-3-yl)-pyridin-2-yloxy]-2-pyrrolidin-1-ylmethyl-quinoline], the IC50 [1] was 70 nM and the IC50 (human LTA4 hydrolase) was 0.24 nM.

For `c1cc(-c2ccc(Oc3ccc4nc(CN5CCC6(COC6)C5)ccc4c3)nc2)[nH]n1` [Example 20, 2-(2-Oxa-6-aza-spiro[3.4]oct-6-ylmethyl)-6-[5-(2H-pyrazol-3-yl)-pyridin-2-yloxy]-quinoline], the IC50 [1] was 82 nM and the IC50 (human LTA4 hydrolase) was 0.3 nM.

With `c1cc(-c2ccc(Oc3ccc4nc(CN5CCC5)ccc4c3)nc2)[nH]n1` [Example 21, 2-Azetidin-1-ylmethyl-6-[5-(2H-pyrazol-3-yl)-pyridin-2-yloxy]-quinoline] the IC50 [1] was 86 nM and the IC50 (human LTA4 hydrolase) was 0.22 nM.

`c1cc(-c2ccc(Oc3ccc4nc(CN5CCCCCC5)ccc4c3)nc2)[nH]n1` [Example 22, 2-Azepan-1-ylmethyl-6-[5-(2H-pyrazol-3-yl)-pyridin-2-yloxy]-quinoline] showed an IC50 [1] of 89 nM and an IC50 (human LTA4 hydrolase) of 0.36 nM.

For `c1cc(-c2ccc(Oc3ccc4nc(CN5CCCCC5)ccc4c3)nc2)[nH]n1` [Example 23, 2-Piperidin-1-ylmethyl-6-[5-(2H-pyrazol-3-yl)-pyridin-2-yloxy]-quinoline], the IC50 [1] was 90 nM and the IC50 (human LTA4 hydrolase) was 0.48 nM.

In the case of `CC(=O)N1CC2CCC(C1)N2Cc1ccc2cc(Oc3ccc(-c4ccn[nH]4)cn3)ccc2n1` [Example 24, 1-(8-{6-[5-(2H-Pyrazol-3-yl)-pyridin-2-yloxy]-quinolin-2-ylmethyl}-3,8-diaza-bicyclo[3.2.1]oct-3-yl)-ethanone], the IC50 [1] is reported as 99 nM and the IC50 (human LTA4 hydrolase) is reported as 0.33 nM.

Molecule `CNCc1ccc2cc(Oc3ccc(-c4ccn[nH]4)cn3)ccc2n1` [Example 25, Methyl-{6-[5-(2H-pyrazol-3-yl)-pyridin-2-yloxy]-quinolin-2-ylmethyl}-amine] has an IC50 [1] of 110 nM and an IC50 (human LTA4 hydrolase) of 0.5 nM.

`CC(C)C(=O)N1CCN(Cc2ccc3cc(Oc4ccc(-c5ccn[nH]5)cn4)ccc3n2)CC1` [Example 26, 2-Methyl-1-(4-{6-[5-(2H-pyrazol-3-yl)-pyridin-2-yloxy]-quinolin-2-ylmethyl}-piperazin-1-yl)-propan-1-one] was tested, and the IC50 [1] was 130 nM and the IC50 (human LTA4 hydrolase) was 0.57 nM.

Molecule `O=C(CO)N1CCN(Cc2ccc3cc(Oc4ccc(-c5ccn[nH]5)cn4)ccc3n2)CC1` [Example 27, 2-Hydroxy-1-(4-{6-[5-(2H-pyrazol-3-yl)-pyridin-2-yloxy]-quinolin-2-ylmethyl}-piperazin-1-yl)-ethanone] has an IC50 [1] of 150 nM and an IC50 (human LTA4 hydrolase) of 0.72 nM.
